Data reported in US11440914B2, “Tricyclic amine compounds as CDK2 inhibitors” (Incyte Corporation, priority 2019, dated 2022).
Blank lines part the entries; values can stand above or below the compound they belong to.

Legend:
[1] = system: CCNE1-amplified cell lines (OVCAR3, COV318); test: Cell cycle analysis by FACS in CCNE1-amplified cell lines; type: cell-based, human; conditions: for percentage of S phase cells: 100 nM, 16 hours
Description: (§1) The effect of CDK4/6-inhibition in CCNE1-amplified versus CCNE1-non-amplified cell lines was evaluated.
(§2) A similar experiment was performed in a larger set of CCNE1-amplified cell lines (COV318 and OVCAR3) and CCNE1-non-amplified cell lines (COV504, OV56, and Igrov1) (FIG. 6).
To confirm the role of p16 in CDK2-sensitivity of CCNE-amplified cells, COV318 cells were treated with control or p16-specific siRNA.
(§3) Bulk DNA was stained with DAPI. Compound-treated and DMSO treated control cells were acquired with CytoFlex (Beckman Coulter) and were analyzed using the FlowJo software. For cell cycle analysis of cells with siRNA knockdown, 72 hours after siRNA transfection, cells exposed to […] for 3 hours before detection of Click-iT Alexa Fluor® 647 azide kit.

[2] = system: Rb phosphorylated on serine 780 in CCNE1 amplified COV318 cells; test: CDK2 pRb (S780) HTRF cellular assay; type: cell-based; conditions: Homo sapiens, overnight treatment, read-out: IC50 in p-RB S780 HTRF cellular assay
Description: CDK2 pRb ([…]) HTRF cellular assay enables the quantitative detection of Rb phosphorylated on […] in CCNE1 amplified COV318 cells. The assay comprised two antibodies: Europium cryptate labeled anti-Phospho-Rb […] antibody (donor) and d2 labeled anti-Rb antibody (acceptor). In brief, COV318 cells were seeded into the wells of 96-well plate at a density of 25,000 per well with 9-point, 3-fold serial diluted compounds and cultured overnight at 37 degree with 5% CO2. The final concentrations of compounds start from 3 μM. […] After 2 h of incubation at room temperature, HTRF signals were measured on the PHERAstar microplate reader (BMG Labtech), using 340 nm as excitation wavelength, a 620 nm filter for the Europium donor fluorescence, and a 665-nm filter for the acceptor fluorescence detection. HTRF signals were calculated as the HTRF ratio (ratio of fluorescence measured at 665 nm and 620 nm)×10000.

CDK2/Cyclin E1 = CDK2/Cyclin E1 (Homo sapiens (Human), UniProt P24941); test: CDK2/Cyclin E1 HTRF enzyme activity assay; type: biochemical; conditions: 1 mM ATP
Description: CDK2/Cyclin E1 enzyme activity assays utilize full-length human CDK2 co-expressed as N-terminal GST-tagged protein with FLAG-Cyclin E1 in a baculovirus expression system (Carna Product Number 04-165). Assays are conducted in white 384-well polystyrene plates in a final reaction volume of 8 μL. CDK2/Cyclin E1 (0.25 nM) is incubated with compounds (40 nL serially diluted in DMSO) in the presence of ATP (50 μM or 1 mM) and 50 nM ULight™-labeled eIF4E-binding protein 1 (THR37/46) peptide (PerkinElmer) in assay buffer (containing 50 mM HEPES pH 7.5, 1 mM EGTA, 10 mM MgCl2, 2 mM DTT, 0.05 mg/ml BSA, and 0.01% Tween 20) for 60 minutes at room temperature. The reactions are stopped by the addition of EDTA and Europium-labeled anti-phospho-4E-BP1 antibody (PerkinElmer), for a final concentration of 15 mM and 1.5 nM, respectively. HTRF signals are read after 1 hour at room temperature on a PHERAstar FS plate reader (BMG Labtech). Data is analyzed with IDBS XLFit and GraphPad Prism 5.0 software using a three or four parameter dose response curve to determine IC50 for each compound.

[3] = system: Rb phosphorylation at S780 in CCNE1-non-amplified cell lines (COV504 and OV56); test: Western blot of Rb phosphorylation at S780 in CCNE1-non-amplified cell lines; type: cell-based, human; conditions: various doses, 1 or 15 hours
Description: (§4) The effect of CDK4/6-inhibition on Rb phosphorylation at S780 in CCNE1-amplified versus CCNE1-non-amplified cell lines was evaluated. […] One or 15 hours after treatment, the cells were harvested and total protein was extracted and analyzed by western blot (FIG. 8).
(§5) Whole cell extracts were prepared using RIPA buffer (Thermo Scientific, 89900) with a Halt Protease and Phosphatase Inhibitor Cocktail (Thermo Scientific, 78440). Protein concentration was quantified with a BCA Protein Assay Kit (Thermo Scientific, 23225) and […] of protein lysates were loaded for SDS-PAGE using precast gradient gels (Bio-Rad, Hercules, No. 456-1094). Samples were diluted in 5× Laemmli buffer (300 mM Tris-HCl pH 6.8, 10% SDS (w/v), 5% 2-mercaptoethanol, 25% glycerol (v/v), 0.1% bromophenol blue w/v) and boiled for 5 minutes. […] of proteins were separated by 8-15% SDS-PAGE and transferred onto polyvinylidene fluoride (PVDF) membranes. Unspecific binding sites on the PVDF membranes were blocked with 5% non-fat milk in TBST (20 mM Tris-HCl, pH 7.6, 137 mM NaCl, 1% Tween-20). […] Images were captured by Luminescence/Fluorescence Imaging System Odyssey CLx Imager (LI-COR).

[4] = system: CCNE1-non-amplified cell lines (COV504, OV56, Igrov1); test: Cell cycle analysis by FACS in CCNE1-non-amplified cell lines; type: cell-based, human
Description: as §1, §2, §3

[5] = system: Rb phosphorylation at S780 in CCNE1-amplified cell lines (OVCAR3 and COV318); test: Western blot of Rb phosphorylation at S780 in CCNE1-amplified cell lines; type: cell-based, human; conditions: various doses, 1 or 15 hours
Description: as §4, §5

SMILES: C[C@@]1(O)CCC[C@H]1n1c(=O)ccc2cnc(NC3CCN(S(C)(=O)=O)CC3)nc21 [Compound A, 8-((1R,2R)-2-hydroxy-2-methylcyclopentyl)-2-((1-(methylsulfonyl)piperidin-4-yl)amino)pyrido[2,3-d]pyrimidin-7(8H)-one]
percentage of S phase cells ([1]; COV318, control siRNA): significantly decreased
percentage of S phase cells ([1]; COV318, p16 knocked down by siRNA, vs DMSO): not significantly decreased
IC50 [2]: 0.037 µM

SMILES: Cc1nc2c(n1C1CC1)-c1nc(N[C@H]3CCN(S(=O)(=O)c4cn(C)cn4)C[C@H]3C)ncc1CC2 [Example 31, 1-Cyclopropyl-2-methyl-N-((3R,4S)-3-methyl-1-((1-methyl-1H-imidazol-4-yl)sulfonyl)piperidin-4-yl)-4,5-dihydro-1H-imidazo[4,5-h]quinazolin-8-amine]
IC50 (CDK2/Cyclin E1): ≤ 0.05 µM

SMILES: Cc1nc2c(n1C1CC1)-c1nc(N[C@H]3CCN(S(=O)(=O)c4cnn(C)c4)C[C@H]3C)ncc1CC2 [Example 32, 1-Cyclopropyl-2-methyl-N-((3R,4S)-3-methyl-1-((1-methyl-1H-pyrazol-4-yl)sulfonyl)piperidin-4-yl)-4,5-dihydro-1H-imidazo[4,5-h]quinazolin-8-amine]
IC50 (CDK2/Cyclin E1): ≤ 0.05 µM

SMILES: CC(=O)c1c(C)c2cnc(Nc3ccc(N4CCNCC4)cn3)nc2n(C2CCCC2)c1=O [palbociclib]
percentage of cells at the S phase as compared to DMSO ([1]; COV318 and OVCAR3, 16 hours after treatment): not significantly different
Rb phosphorylation at S780 [3]: blocked Rb phosphorylation
percentage of cells at the S phase as compared to DMSO ([4]; COV504, OV56, Igrov1, 16 hours after treatment): decreased in CCNE1-non-amplified cell lines in a dose-dependent fashion
proliferation (cell cycle analysis by FACS) ([4]; COV504 cells, 16 hours, increasing concentrations): dose-dependent inhibition of the proliferation
IC50 [2]: > 3 µM
Rb phosphorylation at S780 [5]: not in CCNE1-amplified cell lines

Results, then the compound that gave them:

IC50 (CDK2/Cyclin E1): ≤ 0.05 µM
SMILES: CS(=O)(=O)N1CCC(Nc2ncc3c(n2)-c2c(ncn2C2CC2)CO3)CC1 [Example 26, 1-Cyclopropyl-N-(1-(methylsulfonyl)piperidin-4-yl)-1,4-dihydroimidazo[4′,5′:4,5]pyrano[3,2-d]pyrimidin-8-amine]

IC50 (CDK2/Cyclin E1): ≤ 0.05 µM
SMILES: Cc1nc2c(n1C(C)C)-c1nc(NC3CCN(S(C)(=O)=O)CC3)ncc1CC2 [Example 27, 1-Isopropyl-2-methyl-N-(1-(methylsulfonyl)piperidin-4-yl)-4,5-dihydro-1H-imidazo[4,5-h]quinazolin-8-amine]

IC50 (CDK2/Cyclin E1): ≤ 0.05 µM
SMILES: Cc1nc2c(n1C)-c1nc(N[C@H]3CCN(S(=O)(=O)c4cn(C)cn4)C[C@H]3C)ncc1CC2 [Example 28, 1,2-Dimethyl-N-((3R,4S)-3-methyl-1-((1-methyl-1H-imidazol-4-yl)sulfonyl)piperidin-4-yl)-4,5-dihydro-1H-imidazo[4,5-h]quinazolin-8-amine]

IC50 (CDK2/Cyclin E1): ≤ 0.05 µM
SMILES: Cc1nc2c(n1C)-c1nc(N[C@H]3CCN(S(=O)(=O)c4cccc(N5CCN(C)CC5)n4)C[C@H]3C)ncc1CC2 [Example 29, 1,2-Dimethyl-N-((3R,4S)-3-methyl-1-((6-(4-methylpiperazin-1-yl)pyridin-2-yl)sulfonyl)piperidin-4-yl)-4,5-dihydro-1H-imidazo[4,5-h]quinazolin-8-amine]

IC50 (CDK2/Cyclin E1): ≤ 0.05 µM
SMILES: Cc1nc2c(n1C)-c1nc(N[C@H]3CCN(S(=O)(=O)c4ccc(N5CC[C@@H](O)C5)nc4)C[C@H]3C)ncc1CC2 [Example 30, (R)-1-(5-(((3R,4S)-4-((1,2-Dimethyl-4,5-dihydro-1H-imidazo[4,5-h]quinazolin-8-yl)amino)-3-methylpiperidin-1-yl)sulfonyl)pyridin-2-yl)pyrrolidin-3-ol]
